# Laboratory results from US20120208809A1, “9H-PYRROLO[2,3-B: 5,4-C'] DIPYRIDINE AZACARBOLINE DERIVATIVES, PREPARATION THEREOF, AND THERAPEUTIC USE THEREOF” (SANOFI, priority 2009, published 2012).
# pEC50, pIC50: −log10 of the molar value.
# Experiments:
# Pim-3 = target: T1, Pim-3 (Homo sapiens, UniProt Q86V86); assay: TR-FRET assay of Pim kinase activity (phosphorylation of Bad Ser112), Pim-3; type: biochemical; conditions: ATP 40 μM, read-out: IC50 Pim3
# T1 construct: full-length human recombinant His6-labelled Pim-1, Pim-2 or Pim-3 protein; His6; made in house
# In short: (§1)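 Full-length His6-tagged human Pim-1, -2 or -3 phosphorylate full-length His6-Bad at 40 μM ATP; phospho-Ser112 detected by TR-FRET (Eu anti-phosphoBad, APC anti-His6), 665/615 nm ratio. Compounds run at 10 concentrations in duplicate, typically top 30 μM; IC50 from 4-parameter logistic fit.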
# Pim-1 = target: T2, Pim-1 (Homo sapiens, UniProt P11309); assay: TR-FRET assay of Pim kinase activity (phosphorylation of Bad Ser112), Pim-1; type: biochemical; conditions: ATP 40 μM, read-out: IC50 Pim1
# T2 construct: full-length human recombinant His6-labelled Pim-1, Pim-2 or Pim-3 protein; His6; made in house
# T2 sequence (P11309 whole entry): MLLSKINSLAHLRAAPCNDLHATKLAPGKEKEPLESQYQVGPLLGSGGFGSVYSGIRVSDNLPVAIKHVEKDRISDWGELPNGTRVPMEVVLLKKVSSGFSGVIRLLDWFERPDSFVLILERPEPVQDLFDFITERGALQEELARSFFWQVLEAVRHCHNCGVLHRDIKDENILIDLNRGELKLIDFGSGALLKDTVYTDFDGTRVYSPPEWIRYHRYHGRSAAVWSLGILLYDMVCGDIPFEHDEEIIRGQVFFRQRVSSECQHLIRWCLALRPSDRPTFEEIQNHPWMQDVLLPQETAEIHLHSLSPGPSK
# In short: as §1
# PLK1 = PLK1 (Homo sapiens, UniProt P53350); assay: Biochemical results, IC50 PLK1
# PLK1, sequence (P53350 whole entry, species assumed): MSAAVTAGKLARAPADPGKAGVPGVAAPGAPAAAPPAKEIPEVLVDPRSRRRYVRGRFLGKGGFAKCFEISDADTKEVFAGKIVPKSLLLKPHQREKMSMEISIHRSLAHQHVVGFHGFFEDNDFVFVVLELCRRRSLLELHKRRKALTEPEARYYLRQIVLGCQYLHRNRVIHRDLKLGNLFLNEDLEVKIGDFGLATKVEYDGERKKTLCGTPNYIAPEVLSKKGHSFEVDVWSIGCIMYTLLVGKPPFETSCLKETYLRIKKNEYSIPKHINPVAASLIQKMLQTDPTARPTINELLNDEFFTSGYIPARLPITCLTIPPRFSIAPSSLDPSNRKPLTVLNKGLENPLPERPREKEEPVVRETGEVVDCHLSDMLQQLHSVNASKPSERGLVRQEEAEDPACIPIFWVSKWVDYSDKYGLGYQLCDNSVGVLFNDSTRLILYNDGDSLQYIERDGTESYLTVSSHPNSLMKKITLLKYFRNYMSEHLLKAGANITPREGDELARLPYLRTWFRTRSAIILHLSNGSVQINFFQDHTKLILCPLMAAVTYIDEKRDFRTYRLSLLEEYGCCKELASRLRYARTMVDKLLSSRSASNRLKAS
# CDK1 = CDK1 (Homo sapiens, UniProt P06493); assay: Biochemical results, IC50 CDK1
# CDK1, sequence (P06493 whole entry, species assumed): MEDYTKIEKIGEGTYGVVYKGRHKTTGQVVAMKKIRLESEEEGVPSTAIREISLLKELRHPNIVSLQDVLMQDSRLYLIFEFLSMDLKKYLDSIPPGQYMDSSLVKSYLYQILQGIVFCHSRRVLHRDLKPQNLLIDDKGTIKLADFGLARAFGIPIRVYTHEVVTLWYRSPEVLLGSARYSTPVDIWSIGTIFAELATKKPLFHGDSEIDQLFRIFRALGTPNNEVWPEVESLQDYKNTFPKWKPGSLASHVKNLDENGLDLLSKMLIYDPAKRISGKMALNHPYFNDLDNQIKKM
# CDK1, sequence (P14635 whole entry partner, species assumed): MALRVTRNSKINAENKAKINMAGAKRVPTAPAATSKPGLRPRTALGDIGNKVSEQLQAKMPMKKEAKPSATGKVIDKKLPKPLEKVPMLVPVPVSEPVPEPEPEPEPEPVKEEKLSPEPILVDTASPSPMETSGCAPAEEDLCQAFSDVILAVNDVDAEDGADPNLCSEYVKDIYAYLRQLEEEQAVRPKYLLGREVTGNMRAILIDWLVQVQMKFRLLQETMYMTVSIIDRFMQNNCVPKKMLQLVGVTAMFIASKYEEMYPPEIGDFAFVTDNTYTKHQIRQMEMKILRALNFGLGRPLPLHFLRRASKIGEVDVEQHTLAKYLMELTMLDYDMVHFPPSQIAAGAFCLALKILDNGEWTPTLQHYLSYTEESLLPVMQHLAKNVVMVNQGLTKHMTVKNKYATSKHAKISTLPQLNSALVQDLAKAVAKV
# MV4-11 = assay: Cell viability assay (CellTiter-Blue), MV4-11; type: cell-based; conditions: Homo sapiens, read-out: EC50 MV4-11 μM (acute myeloid leukemia), MV4-11 cells, read-out: EC50 MV4-11 μM (myeloma)
# Description: (§2) The representative compounds of the invention are also screened as regards their effects on cell proliferation and viability, using a variety of tumoral cell lines of human source, representative of different pathological indications. These cell lines include:
# (§3) In order to measure the viability, the tumour cells are incubated in 96-well or 384-well format for 48, 72 or 96 hours, preferably 72 hours, with a compound of the invention at dilutions of a factor 3, with, in general, nine doses in total, the highest dose being equal to 10 μM or 30 μM. The cell viability is evaluated by adding CellTiter-Blue® (Promega, Madison, Wis., United States) for 4 hours and endpoint readings are taken using a SpectraMax Genmini EM plate reader (Molecular Devices, Sunnyvale, Calif., United States). The CellTiter-Blue® cell viability assay measures the ability of the cells in culture to reduce resazurin to resorufin, the intensity of the fluorescence signal being directly proportional to the number of live cells. The EC50 represents the concentration of compound that leads to a 50% reduction of the viability/proliferative expansion of the cells.
# Pim-2 = target: T3, Pim-2 (Homo sapiens, UniProt Q9P1W9); assay: TR-FRET assay of Pim kinase activity (phosphorylation of Bad Ser112), Pim-2; type: biochemical; conditions: ATP 40 μM, read-out: IC50 Pim2
# T3 construct: full-length human recombinant His6-labelled Pim-1, Pim-2 or Pim-3 protein; His6; made in house
# T3 sequence (Q9P1W9 whole entry): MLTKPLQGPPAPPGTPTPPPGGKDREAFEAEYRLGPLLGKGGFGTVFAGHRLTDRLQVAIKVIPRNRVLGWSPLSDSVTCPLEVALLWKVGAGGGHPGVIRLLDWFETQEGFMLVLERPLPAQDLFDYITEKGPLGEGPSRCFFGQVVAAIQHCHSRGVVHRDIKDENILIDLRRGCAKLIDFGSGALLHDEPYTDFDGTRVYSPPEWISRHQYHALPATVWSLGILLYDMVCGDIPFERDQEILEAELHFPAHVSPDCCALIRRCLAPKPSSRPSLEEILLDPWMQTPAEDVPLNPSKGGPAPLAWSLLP
# In short: as §1
# MOLM-13 = assay: Cell viability assay (CellTiter-Blue), MOLM-13; type: cell-based; conditions: Homo sapiens, read-out: EC50 MOLM-13 μM, MOLM-13 cells, read-out: EC50 MOLM-13 μM (myeloma)
# Description: as §2, §3
# EOL-1 = assay: Cell viability assay (CellTiter-Blue), EOL-1; type: cell-based; conditions: Homo sapiens, EOL1, read-out: EC50 EOL-1 μM (eosinophilic leukaemia), EOL-1 cells, read-out: EC50 EOL-1 μM (lymphoma);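 note: EOL-1 is an acute myeloid eosinophilic leukaemia line not a lymphoma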
# Description: as §2
# Models of Haematological Cancers: • TF-1 (acute myelogenic leukaemia; AML M6 at the time of diagnosis); • K G-1 (AML; erythroleukaemia evolving into AML); • KG-1a (AML; subclone derived from immature KG-1); • EOL-1 (AML: eosinophilic leukaemia); • PL-21 (AML; M3); • ML-2 (AML; T-NHL evolving into T-ALL evolving into AML M4); • HL-60 (AML, M3); • Kasumi-1 (AML); • GDM-1 (AML); • K-562 (CML—chronic myelogenic leukaemia; blastic crisis); • JURL-MK1 (CML; blastic crisis); • DND-41 (T-ALL—T-cell acute lymphoblastic leukaemia); • Jurkat (T-ALL); NALM-6 (B-ALL B-cell ALL); • CEM (ALL; lymphosarcoma evolving into ALL); • Jeko-1 (B-NHL—B-cell non-Hodgkin lymphoma; lymphoma with coat cells derived from a large-cell variant in leukaemic transformation); • WSU-DLCL2 (B-NHL; diffuse lymphoma with large B cells); • RL (B-NHL; undifferentiated diffuse); • OCl-Ly10 (B-NHL); • DoHH-2 (B-NHL); • RPMI-8226 (MM—multiple myelomas); • JVM-2 (B-CLL—B-cell chronic lymphocytic leukaemia); and • JVM-3 (B-CLL).
# as §3
# phosphoBAD (JEKO) = assay: Level of phosphorylation of Bad by ELISA, JEKO cell line; type: cell-based; conditions: Homo sapiens, JEKO cells, 3 hours at 37° C.
# Description: (§4) The activity of the molecules is evaluated on the JEKO or DND-41 cell line by measuring the level of phosphorylation of Bad and the total Bad content, via the ELISA technique.
# (§5) The JEKO or DND-41 cells are resuspended at a concentration of 500 000 cells per ml. The cells are then diluted in RPMI-1640 medium containing 20% foetal calf serum. 225 μl of cells are placed in a plate. Serial dilutions of the molecules are then performed (8 points, three-fold dilution, range started at 10 mM). Each dilution point is then diluted to 1/100 in medium. Next, 25 μl of each of the concentrations are added to the cells and then incubated for 3 hours at 37° C.
# (§6) 100 μl of the cells are transferred into a plate treated with poly-D-Lysine. The plate is then incubated for 5-10 minutes at 37° C. and then centrifuged for 5 minutes at 1500 rpm. A volume of 100 μl of 8% fixing solution (solution of formaldehyde in PBS buffer) is added to each of the wells. After covering with a self-adhesive film and a lid, the plate is incubated for 20 minutes at room temperature and then stored at 4° C. overnight.
# (§7) Next, the liquid is removed and two successive washes are performed with washing buffer. 100 μl of quenching buffer are added, followed by incubating for 15 minutes at room temperature. After washing, 100 μl of […] at room temperature. After washing, 50 μl of primary antibody diluted to 1/250 for pBAD (Cell Signaling Cat#5284) and to 1/500 for Bad (MBL Cat#591) are added to each of the plates. Each plate is incubated for 2 hours at room temperature. After two washes, 50 μl of secondary antibody (diluted to 1/16) are added to the pBAD plate (tebu-bio ref; FE-021) and 50 μl of the HRP-conjugated IgG secondary antibody (Santa Cruz Cat #SC-2004; diluted to 1/1000) are added to the Bad plate. Incubation for 1 hour at room temperature is performed. Four washes with the washing solution are performed, followed by three washes with PBS. Finally, 100 μl of the developing solution are added, followed by incubation for 10 minutes. Finally, 100 μl of the quenching solution are added, before reading at 450 nm.
# phosphoBAD (DND-41) = assay: Level of phosphorylation of Bad by ELISA, DND-41 cell line; type: cell-based; conditions: Homo sapiens, DND41, DND-41 cells, 3 hours at 37° C.
# Description: as §4, §5, §6, §7
Compound,pIC50 (Pim-3),pIC50 (Pim-1),pIC50 (PLK1),pIC50 (CDK1),pEC50 (MV4-11),pIC50 (Pim-2),pEC50 (MOLM-13),pIC50 (phosphoBAD (JEKO)),pIC50 (phosphoBAD (DND-41)),pEC50 (EOL-1)
"CN(C)CCNC(=O)c1cccc(-c2c(F)cnc3[nH]c4cnc(-c5cccnc5)cc4c23)c1 [Example 12, N-[2-(dimethylamino)ethyl]-3-[3-fluoro-6-(pyridin-3-yl)-9H-pyrrolo[2,3-b:5,4-c′]dipyridin-4-yl]benzamide]",> 7.00,> 7.00,5.30 to 6.00,5.30 to 6.00,5.30 to 6.00,5.30 to 6.00,6.00 to 7.00,,,6.00 to 7.00
"O=C(NCCN1CCOCC1)c1ccc(-c2c(F)cnc3[nH]c4cnc(-c5cccnc5)cc4c23)cc1 [Example 21, 4-[3-fluoro-6-(pyridin-3-yl)-9H-pyrrolo[2,3-b:5,4-c′]dipyridin-4-yl]-N-[2-(morpholin-4-yl)ethyl]benzamide]",> 7.00,> 7.00,5.30 to 6.00,6.00 to 7.00,6.00 to 7.00,5.30 to 6.00,6.00 to 7.00,,,6.00 to 7.00
"O=C(NC1CC1)c1ccc(-c2c(F)cnc3[nH]c4cnc(-c5cccnc5)cc4c23)cc1 [Example 11, N-cyclopropyl-4-[3-fluoro-6-(pyridin-3-yl)-9H-pyrrolo[2,3-b:5,4-c′]dipyridin-4-yl]benzamide]",6.00 to 7.00,> 7.00,,,,5.30 to 6.00,,6.00 to 7.00,,
"CC(C)(N)CNC(=O)c1ccc(-c2c(F)cnc3[nH]c4cnc(-c5cccnc5)cc4c23)cc1 [Example 26, N-(2-amino-2-methylpropyl)-4-[3-fluoro-6-(pyridin-3-yl)-9H-pyrrolo[2,3-b:5,4-c′]dipyridin-4-yl]benzamide]",> 7.00,> 7.00,6.00 to 7.00,5.30 to 6.00,,> 7.00,,5.30 to 6.00,,
"CC(CNC(=O)c1ccc(-c2c(F)cnc3[nH]c4cnc(-c5cccnc5)cc4c23)cc1)N1CCCC1 (stereo not shown) [Example 63, 4-[3-fluoro-6-(pyridin-3-yl)-9H-pyrrolo[2,3-b:5,4-c′]dipyridin-4-yl]-N-[2-(pyrrolidin-1-yl)propyl]benzamide]",> 7.00,> 7.00,6.00 to 7.00,5.30 to 6.00,6.00 to 7.00,6.00 to 7.00,,,6.00 to 7.00,6.00 to 7.00
"CN1CCC(CCNC(=O)c2ccc(-c3c(F)cnc4[nH]c5cnc(-c6cccnc6)cc5c34)cc2)CC1 [Example 61, 4-[3-fluoro-6-(pyridin-3-yl)-9H-pyrrolo[2,3-b:5,4-c′]dipyridin-4-yl]-N-[2-(1-methylpiperidin-4-yl)ethyl]benzamide]",> 7.00,> 7.00,5.30 to 6.00,5.30 to 6.00,6.00 to 7.00,6.00 to 7.00,,,5.30 to 6.00,6.00 to 7.00
"O=C(NCCCN1CCOCC1)c1ccc(-c2c(F)cnc3[nH]c4cnc(-c5cccnc5)cc4c23)cc1 [Example 19, 4-[3-fluoro-6-(pyridin-3-yl)-9H-pyrrolo[2,3-b:5,4-c′]dipyridin-4-yl]-N-[3-(morpholin-4-yl)propyl]benzamide]",> 7.00,> 7.00,6.00 to 7.00,5.30 to 6.00,,6.00 to 7.00,6.00 to 7.00,,,6.00 to 7.00
"CN1CCN(NC(=O)c2ccc(-c3c(F)cnc4[nH]c5cnc(-c6cccnc6)cc5c34)cc2)CC1 [Example 7, 4-[3-fluoro-6-(pyridin-3-yl)-9H-pyrrolo[2,3-b:5,4-c′]dipyridin-4-yl]-N-(4-methylpiperazin-1-yl)benzamide]",> 7.00,> 7.00,6.00 to 7.00,5.30 to 6.00,6.00 to 7.00,6.00 to 7.00,6.00 to 7.00,,,> 7.00

# Continued, in another order:
pIC50 (Pim-3),pIC50 (Pim-1),pIC50 (PLK1),pIC50 (CDK1),pEC50 (MV4-11),pIC50 (Pim-2),pEC50 (MOLM-13),pIC50 (phosphoBAD (JEKO)),pIC50 (phosphoBAD (DND-41)),Compound,pEC50 (EOL-1)
> 7.00,> 7.00,6.00 to 7.00,6.00 to 7.00,,6.00 to 7.00,6.00 to 7.00,,,"O=C(NCCCN1CCCC1)c1ccc(-c2c(F)cnc3[nH]c4cnc(-c5cccnc5)cc4c23)cc1 [Example 20, 4-[3-fluoro-6-(pyridin-3-yl)-9H-pyrrolo[2,3-b:5,4-c′]dipyridin-4-yl]-N-[3-(pyrrolidin-1-yl)propyl]benzamide]",6.00 to 7.00
> 7.00,> 7.00,5.30 to 6.00,6.00 to 7.00,6.00 to 7.00,> 7.00,6.00 to 7.00,,,CN(C)CCCNC(=O)c1ccc(-c2c(F)cnc3[nH]c4cnc(-c5cnn(C)c5)cc4c23)cc1 [Example 38],> 7.00
> 7.00,> 7.00,5.30 to 6.00,5.30 to 6.00,6.00 to 7.00,6.00 to 7.00,6.00 to 7.00,,,"CN(C)CCCNC(=O)c1ccc(-c2c(F)cnc3[nH]c4cnc(-c5cccnc5)cc4c23)cc1 [Example 10, N-[3-(dimethylamino)propyl]-4-[3-fluoro-6-(pyridin-3-yl)-9H-pyrrolo[2,3-b:5,4-c′]dipyridin-4-yl]benzamide]",6.00 to 7.00
> 7.00,> 7.00,5.30 to 6.00,5.30 to 6.00,6.00 to 7.00,> 7.00,,,> 7.00,"CC(CN(C)C)NC(=O)c1ccc(-c2c(F)cnc3[nH]c4cnc(-c5cccnc5)cc4c23)cc1 (stereo not shown) [Example 68, N-[1-(dimethylamino)propan-2-yl]-4-[3-fluoro-6-(pyridin-3-yl)-9H-pyrrolo[2,3-b:5,4c′]dipyridin-4-yl]benzamide]",> 7.00
